IC50 data for one compound are collected here from patent publication US4757069A, “Pyridazodiazepine derivatives” (Hoffmann-La Roche Inc., priority 1986, dated 1988).

Structures can show the parent of a compound that is named as a salt.

This assay concerns the target T1, Angiotensin converting enzyme (rabbit lung) (Oryctolagus cuniculus, UniProt P12822).
T1 construct: Angiotensin converting enzyme (rabbit lung); from tissue; host or cells: rabbit lung
T1 sequence (P12822 34-1310): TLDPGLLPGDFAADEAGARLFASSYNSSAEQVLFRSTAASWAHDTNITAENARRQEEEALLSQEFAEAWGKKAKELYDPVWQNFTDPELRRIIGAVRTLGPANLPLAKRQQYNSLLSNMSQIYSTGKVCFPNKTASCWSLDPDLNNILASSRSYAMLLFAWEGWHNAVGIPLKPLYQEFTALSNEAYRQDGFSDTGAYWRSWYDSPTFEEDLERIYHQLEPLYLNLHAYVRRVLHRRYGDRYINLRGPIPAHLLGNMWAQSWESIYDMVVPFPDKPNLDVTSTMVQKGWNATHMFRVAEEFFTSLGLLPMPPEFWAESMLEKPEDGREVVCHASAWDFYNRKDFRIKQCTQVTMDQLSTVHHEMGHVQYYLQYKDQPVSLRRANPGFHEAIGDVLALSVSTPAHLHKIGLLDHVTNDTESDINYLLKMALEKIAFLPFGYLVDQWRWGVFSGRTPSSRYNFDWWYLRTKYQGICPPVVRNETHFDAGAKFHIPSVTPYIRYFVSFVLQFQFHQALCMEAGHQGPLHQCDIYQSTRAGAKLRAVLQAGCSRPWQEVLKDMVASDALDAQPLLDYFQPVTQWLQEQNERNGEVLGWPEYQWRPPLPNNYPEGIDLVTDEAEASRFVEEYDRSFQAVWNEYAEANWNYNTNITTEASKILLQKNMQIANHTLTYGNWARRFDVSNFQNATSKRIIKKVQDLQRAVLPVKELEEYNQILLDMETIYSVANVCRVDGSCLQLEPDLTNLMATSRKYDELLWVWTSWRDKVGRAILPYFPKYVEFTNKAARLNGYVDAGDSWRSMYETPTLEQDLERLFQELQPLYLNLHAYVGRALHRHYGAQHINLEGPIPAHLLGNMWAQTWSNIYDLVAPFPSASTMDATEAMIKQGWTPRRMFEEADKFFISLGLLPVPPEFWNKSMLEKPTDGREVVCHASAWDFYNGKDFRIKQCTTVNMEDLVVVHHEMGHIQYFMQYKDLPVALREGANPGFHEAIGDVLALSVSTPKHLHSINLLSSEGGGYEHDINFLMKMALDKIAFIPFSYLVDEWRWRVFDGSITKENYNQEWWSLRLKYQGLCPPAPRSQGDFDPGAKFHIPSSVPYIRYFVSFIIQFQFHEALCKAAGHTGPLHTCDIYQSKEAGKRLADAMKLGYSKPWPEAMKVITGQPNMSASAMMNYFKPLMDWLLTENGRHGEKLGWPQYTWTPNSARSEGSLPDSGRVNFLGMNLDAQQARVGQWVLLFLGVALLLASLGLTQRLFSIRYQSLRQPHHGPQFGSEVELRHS
Kind of assay: Inhibition of angiotensin-converting enzyme in vitro (conversion of angiotensin I into angiotensin II, fluorescence). Type of assay: biochemical. The following applies: rabbit lung ACE; 90 min preincubation at 37° C., pH 7.5; angiotensin I 250 μmol; 30 min reaction; read-out: IC50 (concentration of test substance which reduces by 50% the conversion of angiotensin I into angiotensin II). Here is the method:
The activity of the present pyridazodiazepine derivatives in inhibiting angiotensin-converting enzyme in vitro can be determined using the test now described.
The method used is based on the method of Santos, R. A. S., Kreiger, E. M., and Greene L. J., Hypertension (1985), 7, 244-252. Angiotensin converting enzyme (rabbit lung) is incubated in the presence or absence of various concentrations of a test substance for 90 minutes at 37° C. in 0.1M potassium phosphate buffer, pH 7.5, containing 30 mmol of sodium chloride. If the test substance is an ester, it is cleaved by treatment with hog liver esterase prior to carrying out the test. The reaction is initiated by adding angiotensin I to a final concentration of 250 μmol. The final volume of the reaction mixture is 0.25 ml. After holding the reaction mixture at 37° C. for 30 minutes the reaction is terminated by adding 1.45 ml of 0.3M sodium hydroxide solution. […] of a 0.2% (weight/volume) solution of o-phthaldialdehyde in methanol are added and, after 10 minutes, the solution is acidified with 200 μl of 3M hydrochloric acid. The resulting solution is then subjected to fluorescence spectrometry using excitation and emission wavelengths of 365 nm and 500 nm, respectively, and the IC50 value is calculated. The IC50 is that concentration of test substance which reduces by 50% the conversion of angiotensin I into angiotensin II.

Regarding `N=C(N)Nc1ccc(CC[C@H](N[C@H]2CCCN3CCC[C@@H](C(=O)O)N3C2=O)C(=O)O)cc1` [Example 1, 9(S)-[1(S)-carboxy-3-(4-guanidinophenyl)propylamino]-octahydro-10-oxo-6H-pyridazo[1,2-a][1,2]diazepine-1(S)-carboxylic acid dihydrobromide], the IC50 was found to be 0.6 nM.
